Several values for one entry are separate records, joined by “and”; a condition that tells them apart may be missing. Equal values may be shown once.
Tested on: thromboxane analog U46619 induced PAH in minipigs
Assay: Haemodynamics (PAP, BP) in the anesthetized thromboxane challenged PAH minipig after inhaled (nebulized) application (C-2.1)
Format: in vivo, Göttingen minipig
Conditions: for PAP % change vs. baseline / PAP % changes vs prevalue, mean / BP % change vs. baseline: 100 μg/kg nominal dose; for PAP % change vs. baseline / BP % change vs. baseline: individual animals; for PAP % changes vs prevalue, mean: n = 3; for % changes in BP vs baseline / % changes in PAP vs baseline: inhaled 30 μg/kg
How it was run: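 Anesthetized, ventilated Göttingen minipigs (2-6 kg) given continuous infusion (0.3-0.75 μg/kg/min) to raise mean PAP above 25 mmHg, dosing starting after a 30 min plateau. Compound in 1% DMSO/0.2% citric acid, pH 8, nebulized via Aeroneb Pro into the inspiratory arm (~7 min; stock 300 μg/kg). PAP by Swan-Ganz catheter, BP via carotid catheter.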

## O=C(O)c1ccc(CCN(CCc2ccccc2OCc2ccc(-c3ccc(C(F)(F)F)cc3)cc2Cl)[C@H]2CCCc3nc(C(=O)O)ccc32)cc1 [comparative example 11, (5S)-5-{[2-(4-carboxyphenyl)ethyl][2-(2-{[3-chloro-4′-(trifluoromethyl)[biphenyl]-4-yl]methoxy}phenyl)ethyl]amino}-5,6,7,8-tetrahydroquinoline-2-carboxylic acid]
inhaled, time 190 min
  PAP % change vs. baseline: 77.0% and 61.7% and 68.1%
  PAP % changes vs prevalue, mean: −30.5%
inhaled, time 200 min
  BP % change vs. baseline: 99.9% and 90.4% and 98.2%
  PAP % change vs. baseline: 77.0% and 62.5% and 68.2%
  PAP % changes vs prevalue, mean: −30.9%
inhaled, time 210 min
  BP % change vs. baseline: 98.8% and 90.4% and 97.3%
  PAP % change vs. baseline: 76.5% and 62.0% and 67.9%
  PAP % changes vs prevalue, mean: −30.6%
inhaled, time 220 min
  BP % change vs. baseline: 101.0% and 90.4% and 97.3%
  PAP % change vs. baseline: 77.2% and 61.2% and 68.1%
  PAP % changes vs prevalue, mean: −31.6%
inhaled, time 230 min
  BP % change vs. baseline: 99.9% and 90.4% and 96.3%
  PAP % change vs. baseline: 76.3% and 61.2% and 67.7%
  PAP % changes vs prevalue, mean: −31.2%
inhaled, time 240 min
  BP % change vs. baseline: 98.8% and 89.5% and 95.4%
  PAP % change vs. baseline: 76.5% and 62.5% and 67.8%
  PAP % changes vs prevalue, mean: −31.0%
inhaled, time 250 min
  BP % change vs. baseline: 98.8% and 89.5% and 95.4%
  PAP % change vs. baseline: 77.6% and 63.0% and 69.1%
inhaled, time 260 min
  BP % change vs. baseline: 97.7% and 87.7% and 95.4%
  PAP % change vs. baseline: 77.4% and 62.0% and 67.4%
inhaled, time 270 min
  BP % change vs. baseline: 96.6% and 86.8% and 99.2%
  PAP % change vs. baseline: 77.5% and 61.5% and 67.9%
inhaled, time 280 min
  BP % change vs. baseline: 96.6% and 86.8% and 96.3%
  PAP % change vs. baseline: 77.5% and 63.0% and 68.1%
inhaled, time 290 min
  BP % change vs. baseline: 97.7% and 86.8% and 94.4%
  PAP % change vs. baseline: 77.3% and 62.5% and 67.8%
inhaled, time 300 min
  BP % change vs. baseline: 96.6% and 85.1% and 93.4%
  PAP % change vs. baseline: 78.1% and 63.0% and 67.3%
inhaled, time 310 min
  BP % change vs. baseline: 95.5% and 83.3% and 93.4%
  PAP % change vs. baseline: 76.7% and 60.5% and 68.1%
inhaled, time 320 min
  BP % change vs. baseline: 95.5% and 81.6% and 92.5%
  PAP % change vs. baseline: 75.6% and 63.2% and 67.7%
inhaled, time 330 min
  BP % change vs. baseline: 95.5% and 79.8% and 92.5%
  PAP % change vs. baseline: 76.5% and 63.0% and 67.6%
PAH minipig model, inhaled
  duration of action compared to Ventavis: more than 6 times
After inhaled application (nebulization), comparative example 11 30 μg/kg, Cinaciguat 3 and 10 μg/kg, Riociguat 100 μg/kg, comparative example 3 30 μg/kg
  time of maximum effect on PAP: around 60 min
0 min vs. start inhalation
  % changes in BP vs baseline: 99%
  % changes in PAP vs baseline: 100% and 99%
10 min vs. start inhalation
  % changes in BP vs baseline: 99% and 100%
  % changes in PAP vs baseline: 102% and 99%
20 min vs. start inhalation
  % changes in BP vs baseline: 96% and 98%
  % changes in PAP vs baseline: 101% and 97%
30 min vs. start inhalation
  % changes in BP vs baseline: 94% and 95%
  % changes in PAP vs baseline: 101% and 97%
40 min vs. start inhalation
  % changes in BP vs baseline: 91%
  % changes in PAP vs baseline: 100% and 97%
50 min vs. start inhalation
  % changes in BP vs baseline: 89% and 90%
  % changes in PAP vs baseline: 102% and 96%
60 min vs. start inhalation
  % changes in BP vs baseline: 86% and 88%
  % changes in PAP vs baseline: 101% and 96%
70 min vs. start inhalation
  % changes in BP vs baseline: 86% and 85%
  % changes in PAP vs baseline: 103% and 95%
80 min vs. start inhalation
  % changes in BP vs baseline: 85% and 86%
  % changes in PAP vs baseline: 101% and 94%
90 min vs. start inhalation
  % changes in BP vs baseline: 85%
  % changes in PAP vs baseline: 102% and 94%
100 min vs. start inhalation
  % changes in BP vs baseline: 85% and 84%
  % changes in PAP vs baseline: 103% and 92%
110 min vs. start inhalation
  % changes in BP vs baseline: 84%
  % changes in PAP vs baseline: 102% and 94%
120 min vs. start inhalation
  % changes in BP vs baseline: 85% and 84%
  % changes in PAP vs baseline: 101% and 92%
130 min vs. start inhalation
  % changes in BP vs baseline: 85%
  % changes in PAP vs baseline: 102% and 95%
140 min vs. start inhalation
  % changes in BP vs baseline: 85%
  % changes in PAP vs baseline: 101% and 95%
150 min vs. start inhalation
  % changes in BP vs baseline: 84%
  % changes in PAP vs baseline: 100% and 92%
160 min vs. start inhalation
  % changes in BP vs baseline: 85% and 84%
  % changes in PAP vs baseline: 100% and 91%
170 min vs. start inhalation
  % changes in BP vs baseline: 86% and 85%
  % changes in PAP vs baseline: 101% and 91%
180 min vs. start inhalation
  % changes in BP vs baseline: 86%
  % changes in PAP vs baseline: 101% and 91%
190 min vs. start inhalation
  % changes in BP vs baseline: 86% and 84%
  % changes in PAP vs baseline: 101% and 91%
200 min vs. start inhalation
  % changes in BP vs baseline: 87% and 83%
  % changes in PAP vs baseline: 101% and 90%
210 min vs. start inhalation
  % changes in BP vs baseline: 88% and 84%
  % changes in PAP vs baseline: 101% and 91%
220 min vs. start inhalation
  % changes in BP vs baseline: 87%
  % changes in PAP vs baseline: 99% and 92%
230 min vs. start inhalation
  % changes in BP vs baseline: 89% and 86%
  % changes in PAP vs baseline: 102% and 91%
240 min vs. start inhalation
  % changes in BP vs baseline: 88% and 85%
  % changes in PAP vs baseline: 99% and 92%
−5 min vs. start inhalation
  % changes in BP vs baseline: 101% and 96%
  % changes in PAP vs baseline: 99%
inhaled, 30 μg/kg
  effect on systemic BP: did not show any decrease on systemic BP
inhaled, nominal dose of 100 μg/kg
  lung selectivity: good lung selectivity
inhaled, Ventavis 10 μg/kg nominal dose, comparative example 11 10, 30 and 100 μg/kg nominal dose, 240 min observation interval
  duration of action: ≥ 240 min
